Laboratory results reported in US20210215714A1, “COMPLEMENT ALTERNATIVE PATHWAY-ASSOCIATED NEPHROPATHY BIOMARKERS” (Achillion Pharmaceuticals, Inc., priority 2018, published 2021).

Test system: Ba
Experiment: Phase 2a study: urinary Ba (MicroVue Ba Enzyme Immunoassay)
Format: in vivo, human
[1] = Patient B, 100 mg TID, Follow-Up Day 49
[2] = Patient C, 200 mg TID, Day 1/0 Hour
[3] = Patient C, 200 mg TID, Day 7/0 Hour
[4] = Patient C, 200 mg TID, Day 15 Taper
[5] = Patient C, 200 mg TID, Day 16 Taper
[6] = Patient C, 200 mg TID, Day 17 Taper
[7] = Patient C, 200 mg TID, Day 21 Taper
[8] = Patient C, 200 mg TID, Follow-Up Day 24
[9] = Patient C, 200 mg TID, Follow-Up Day 28
[10] = Patient C, 200 mg TID, Follow-Up Day 49
[11] = Patient D, 200 mg TID, Day 1/0 Hour
[12] = Patient D, 200 mg TID, Day 7/0 Hour
[13] = Patient D, 200 mg TID, Day 15 Taper
[14] = Patient D, 200 mg TID, Day 17 Taper
[15] = Patient D, 200 mg TID, Day 21 Taper

For `CC(=O)c1nn(CC(=O)N2C[C@H](F)C[C@H]2C(=O)Nc2cccc(Br)n2)c2ccc(-c3cnc(C)nc3)cc12` [Compound 1, (2S,4R)-1-(2-(3-acetyl-5-(2-methylpyrimidin-5-yl)-1H-indazol-1-yl)acetyl)-N-(6-bromopyridin-2-yl)-4-fluoropyrrolidine-2-carboxamide], the Ba/ALB [1] was 771 ng/mg, the Ba/Cr [1] was 108.0 µg/mmol and the “Urine Ba” value [1] was 1727 ng/mL. For the same compound, the Ba/ALB (Patient B, 100 mg TID, Screen) was 97 ng/mg, the Ba/Cr (Patient B, 100 mg TID, Screen) was 47.1 µg/mmol and the “Urine Ba” value (Patient B, 100 mg TID, Screen) was 348 ng/mL. The Ba/ALB [2] was 2.9 ng/mg, the Ba/Cr [2] was 0.168 µg/mmol and the “Urine Ba” value [2] was 0.30 ng/mL. For the same compound, the Ba/ALB (Patient C, 200 mg TID, Day 4) was 1.5 ng/mg, the Ba/Cr (Patient C, 200 mg TID, Day 4) was 0.040 µg/mmol and the “Urine Ba” value (Patient C, 200 mg TID, Day 4) was 0.08 ng/mL. For the same compound, the Ba/ALB [3] was 2.6 ng/mg, the Ba/Cr [3] was 0.056 µg/mmol and the “Urine Ba” value [3] was 0.21 ng/mL. The Ba/ALB (Patient C, 200 mg TID, Day 10) was 1.5 ng/mg, the Ba/Cr (Patient C, 200 mg TID, Day 10) was 0.053 µg/mmol and the “Urine Ba” value (Patient C, 200 mg TID, Day 10) was 0.08 ng/mL. The Ba/ALB (Patient C, 200 mg TID, Day 14) was 2.2 ng/mg, the Ba/Cr (Patient C, 200 mg TID, Day 14) was 0.068 µg/mmol and the “Urine Ba” value (Patient C, 200 mg TID, Day 14) was 0.09 ng/mL. For the same compound, the Ba/ALB [4] was 2.2 ng/mg, the Ba/Cr [4] was 0.099 µg/mmol and the “Urine Ba” value [4] was 0.15 ng/mL. The Ba/ALB [5] was 3.0 ng/mg, the Ba/Cr [5] was 0.078 µg/mmol and the “Urine Ba” value [5] was 0.15 ng/mL. The Ba/ALB [6] was 1.8 ng/mg, the Ba/Cr [6] was 0.058 µg/mmol and the “Urine Ba” value [6] was 0.13 ng/mL. For the same compound, the Ba/ALB [7] was 7.5 ng/mg, the Ba/Cr [7] was 0.175 µg/mmol and the “Urine Ba” value [7] was 0.49 ng/mL. For the same compound, the Ba/ALB [8] was 2.3 ng/mg, the Ba/Cr [8] was 0.075 µg/mmol and the “Urine Ba” value [8] was 0.14 ng/mL. The Ba/ALB [9] was 4.5 ng/mg, the Ba/Cr [9] was 0.213 µg/mmol and the “Urine Ba” value [9] was 0.62 ng/mL. The Ba/ALB [10] was 1.7 ng/mg, the Ba/Cr [10] was 0.036 µg/mmol and the “Urine Ba” value [10] was 0.16 ng/mL. The Ba/ALB (Patient C, 200 mg TID, Screen) was 1.5 ng/mg, the Ba/Cr (Patient C, 200 mg TID, Screen) was 0.065 µg/mmol and the “Urine Ba” value (Patient C, 200 mg TID, Screen) was 0.12 ng/mL. The Ba/ALB [11] was 10.9 ng/mg, the Ba/Cr [11] was 2.5 µg/mmol and the “Urine Ba” value [11] was 14.2 ng/mL. For the same compound, the Ba/ALB (Patient D, 200 mg TID, Day 4) was 3.5 ng/mg, the Ba/Cr (Patient D, 200 mg TID, Day 4) was 1.0 µg/mmol and the “Urine Ba” value (Patient D, 200 mg TID, Day 4) was 4.4 ng/mL. The Ba/ALB [12] was 6.5 ng/mg, the Ba/Cr [12] was 2.1 µg/mmol and the “Urine Ba” value [12] was 2.4 ng/mL. The Ba/ALB (Patient D, 200 mg TID, Day 10) was 2.8 ng/mg, the Ba/Cr (Patient D, 200 mg TID, Day 10) was 1.8 µg/mmol and the “Urine Ba” value (Patient D, 200 mg TID, Day 10) was 1.8 ng/mL. For the same compound, the Ba/ALB (Patient D, 200 mg TID, Day 14) was 4.6 ng/mg, the Ba/Cr (Patient D, 200 mg TID, Day 14) was 1.3 µg/mmol and the “Urine Ba” value (Patient D, 200 mg TID, Day 14) was 4.1 ng/mL. For the same compound, the Ba/ALB [13] was 4.3 ng/mg, the Ba/Cr [13] was 2.0 µg/mmol and the “Urine Ba” value [13] was 8.4 ng/mL. For the same compound, the Ba/ALB [14] was 2.9 ng/mg, the Ba/Cr [14] was 1.7 µg/mmol and the “Urine Ba” value [14] was 5.0 ng/mL. It also gave a Ba/ALB [15] of 7.8 ng/mg and a Ba/Cr [15] of 4.4 µg/mmol.
